Experimental data as given in patent US4831170A, “Pharmaceutically active phospino-hydrocarbon-group VIII-metal complexes, antitumor compositions containing these complexes, and a process for preparing said compounds or antitumor compositions” (priority 1985, dated 1989).
Where “and” joins values, the source holds several entries; their conditions need not be identical. Equal entries are not always repeated.

Legend:
[1] = tested on: HCT-116 human colon carcinoma cells; assay: In vitro cytotoxicity, HCT-116 human colon carcinoma cells (72 h, crystal violet); type: cell-based; details: HCT-116 cells
Protocol: (§1) Logarithmically growing cells were harvested by mild trypsinization and 4000 cells were added to each well of a 96-well microtiter plate (Costar). […] The cells were then treated with a metal complex or cisplatin and incubated for 72 hours. The plates were inverted and shaken to remove media, drug and detached cells. […] The fixative was removed, the plates air dried, stained with 0.0075% crystal violet for 15 minutes, washed twice and air dried. The stain was solubilized with 0.2 ml of 0.1 M AcOH/EtOH (1:1) and optical densities determined using a Dynatech MR600 microtiter plate reader. […] The compounds were prepared for in vivo treatment by dissolving or suspending, with the addition of minimal amounts of Tween 80, in water.

[2] = tested on: B16-F10 murine melanoma cells; assay: In vitro cytotoxicity, B16-F10 murine melanoma cells (72 h, crystal violet); type: cell-based
Protocol: as §1

P388 murine leukemia = assay: Antitumor activity against P388 murine leukemia in CDF1 mice; type: in vivo; details: 1 x on day 1; for P 388 Dose producing the maximum % T/C: administered ip; for P 388 Maximum % T/C: median survival time treated/saline control x 100, ip, active if ≥125
Protocol: (§2) All of the metal complexes were tested for antitumor activity against P388 murine leukemia. Selected compounds were also tested for antitumor activity against L1210 murine leukemia and a subline of L1210 murine leukemia resistant to cisplatin (L1210:DDP). CDF1 mice weighing 20 grams were inoculated intraperitoneally with 10^6 ascites cells of P388 leukemia, L1210 leukemia or L1210:DDP leukemia, depending on the test system being used. Drug administration was initiated the day following tumor implantation in all test systems. The complexes were administered at various dose levels by intraperitoneal injection. Groups of four to six mice were used for each dose level and they were treated with the complex on day one only. A group of ten saline treated control mice was included in each experiment. Cisplatin treated groups were included as a positive control in each experiment. The mice were weighed before treatment and again on day five or six and the average weight change used as a measure of toxicity. The animals were observed daily for mortality and the experiments terminated after 30 days. Antitumor activity was determined based on % T/C, which is the ratio of the median survival time of the drug treated group to the median survival time of the saline treated control group times 100. The saline treated mice usually have a median survival time of 9 days with P388 leukemia and 7 days with L1210 and L1210/DDP leukemia. A complex is considered active if it produces a % T/C of ≥125.
(§3) Tables II and IIa contain summaries of the evaluations of the compounds for antitumor activity against the murine leukemias. Listed for each compound is the maximum % T/C achieved and the dose producing that effect.
(§4) For the in vitro cytotoxicity studies the drugs were dissolved or suspended, depending on their solubility, in 0.9% NaCl solution. Occasionally, 5% dextrose in water or 10% DMSO in 0.9% NaCl was used. The compounds were prepared for in vivo treatment by dissolving or suspending, with the addition of minimal amounts of Tween 80, in water.

B16 Melanoma = assay: Antitumor activity against B16 Melanoma in BDF1 mice; type: in vivo; details: for B 16 Dose producing the maximum % T/C: administered ip, days 1-9; for B 16 Maximum % T/C: median survival time vs saline control, ip, daily days 1-9, active if ≥125, figures separated by slashes are from separate experiments
Protocol: Several of the metal complexes were additionally evaluated for antitumor activity against B16 Melanoma. BDF1 mice, 10 per group, were inoculated intraperitoneally with 0.5 ml of a 10 percent (w:v) brei of B16 Melanoma. Intraperitoneal treatment with the metal complexes was initiated one day after implant and continued daily for a total of nine days. From 4 to 5 doses were tested for each compound under study. A saline treated control group and cisplatin treated groups were included in each experiment. The mice were observed daily for survivors and the experiments terminated after 60 days. […] The median survival time of the drug treated mice relative to that of the controls (% T/C) was used as a measure of antitumor activity.
Occasionally, 5% dextrose in water or 10% DMSO in 0.9% NaCl was used. The compounds were prepared for in vivo treatment by dissolving or suspending, with the addition of minimal amounts of Tween 80, in water.

[3] = tested on: L1210 murine leukemia resistant to cisplatin (L1210:DDP); assay: Antitumor activity against cisplatin-resistant L1210 murine leukemia (L1210/DDP) in CDF1 mice; type: in vivo; details: cisplatin-resistant subline, day 1; for L1210/DDP Dose producing the maximum % T/C: administered ip; for L1210/DDP Max. % T/C: done concomitantly with L1210 test, ip, active if ≥125
Protocol: as §2, §3, §4

L1210 murine leukemia = assay: Antitumor activity against L1210 murine leukemia in CDF1 mice; type: in vivo; details: day 1; for L1210 Dose producing the maximum % T/C: administered ip; for L1210 Max. % T/C: median survival time treated/saline control x 100, ip, active if ≥125
Protocol: as §2, §3, §4

[Br-].[Br][Pd+].c1ccc(P(CCP(c2ccccc2)c2ccccc2)c2ccccc2)cc1.c1ccc(P(CCP(c2ccccc2)c2ccccc2)c2ccccc2)cc1 [TNO 376, Bis[1,2-bis(diphenylphosphino)ethane]bromo palladium(II) bromide]
IC 50 (concentration which inhibits cell growth by 50%), HCT 116 [1]: 6.3 µg/mL | IC 50 (concentration which inhibits cell growth by 50%), B 16 [2]: 0.7 µg/mL

[Cl-].[Cl-].[Cl-].[Rh+3].c1ccc(P(CCP(c2ccccc2)c2ccccc2)c2ccccc2)cc1.c1ccc(P(CCP(c2ccccc2)c2ccccc2)c2ccccc2)cc1 [TNO 363, Bis[1,2-bis(diphenylphosphino)ethane]dichloro rhodium(III) chloride]
P 388 Dose producing the maximum % T/C (P388 murine leukemia): 50 mg/kg | P 388 Maximum % T/C (P388 murine leukemia): 133 % T/C

Bis[cis-1,2-bis(diphenylphosphino)ethylene]palladium(II) dichloride [TNO 357]
IC 50 (concentration which inhibits cell growth by 50%), HCT 116 [1]: 13.1 µg/mL | IC 50 (concentration which inhibits cell growth by 50%), B 16 [2]: 27.7 µg/mL

Bis[cis-1,2-bis(diphenylphosphino)ethylene]dichloro iron(III) tetrachloroferrate(III) [TNO 405]
P 388 Dose producing the maximum % T/C (P388 murine leukemia): 100 mg/kg | P 388 Maximum % T/C (P388 murine leukemia): 160 % T/C

O=S(=O)([O-])C(F)(F)F.[Rh+].c1ccc(P(CCP(c2ccccc2)c2ccccc2)c2ccccc2)cc1.c1ccc(P(CCP(c2ccccc2)c2ccccc2)c2ccccc2)cc1 [TNO 302, Bis[1,2-bis(diphenylphosphino)ethane]rhodium(I) triflate]
P 388 Dose producing the maximum % T/C (P388 murine leukemia): 4 mg/kg | P 388 Maximum % T/C (P388 murine leukemia): 153 % T/C | B 16 Dose producing the maximum % T/C (B16 Melanoma): 3.2 mg/kg/inj. | B 16 Maximum % T/C (B16 Melanoma): 150 % T/C and 126 % T/C

Bis[1,2-bis(diphenylphosphino)ethane] cobalt(II) diperchlorate [TNO 358]
P 388 Dose producing the maximum % T/C (P388 murine leukemia): 100 mg/kg | P 388 Maximum % T/C (P388 murine leukemia): 144 % T/C | L1210/DDP Dose producing the maximum % T/C [3]: 100 mg/kg | L1210/DDP Max. % T/C [3]: 143 % T/C | B 16 Dose producing the maximum % T/C (B16 Melanoma): 20 mg/kg/inj. | B 16 Maximum % T/C (B16 Melanoma): 150 % T/C | L1210 Dose producing the maximum % T/C (L1210 murine leukemia): 120 mg/kg | L1210 Max. % T/C (L1210 murine leukemia): 142 % T/C

Bis[1,2-bis(diphenylphosphino)ethane]palladium(II) dichlorate [TNO 306]
P 388 Dose producing the maximum % T/C (P388 murine leukemia): 60 mg/kg | P 388 Maximum % T/C (P388 murine leukemia): 144 % T/C | L1210/DDP Dose producing the maximum % T/C [3]: 3.0 mg/kg | L1210/DDP Max. % T/C [3]: 100 % T/C | B 16 Dose producing the maximum % T/C (B16 Melanoma): 12 mg/kg/inj. | B 16 Maximum % T/C (B16 Melanoma): 202 % T/C and 151 % T/C | L1210 Dose producing the maximum % T/C (L1210 murine leukemia): 1.9 mg/kg | L1210 Max. % T/C (L1210 murine leukemia): 100 % T/C | IC 50 (concentration which inhibits cell growth by 50%), B 16 [2]: 57 µg/mL

Bis[1,2-bis(diphenylphosphino)ethane] nickel(II) perchlorate [TNO 404]
P 388 Dose producing the maximum % T/C (P388 murine leukemia): 25 mg/kg | P 388 Maximum % T/C (P388 murine leukemia): 240 % T/C

O=[N+]([O-])[O-].O=[N+]([O-])[O-].[Pd+2].c1ccc(P(CCP(c2ccccc2)c2ccccc2)c2ccccc2)cc1.c1ccc(P(CCP(c2ccccc2)c2ccccc2)c2ccccc2)cc1 [TNO 345, Bis[1,2-bis(diphenylphosphino)ethane]palladium(II) dinitrate]
IC 50 (concentration which inhibits cell growth by 50%), HCT 116 [1]: 19.6 µg/mL | L1210 Dose producing the maximum % T/C (L1210 murine leukemia): 0,8 mg/kg | L1210 Max. % T/C (L1210 murine leukemia): 100 % T/C | IC 50 (concentration which inhibits cell growth by 50%), B 16 [2]: 4.0 µg/mL

Bis[1,2-bis(diphenylphosphino)ethane] iridium(I) perchlorate [TNO 344]
P 388 Dose producing the maximum % T/C (P388 murine leukemia): 200 mg/kg | P 388 Maximum % T/C (P388 murine leukemia): 167 % T/C | B 16 Dose producing the maximum % T/C (B16 Melanoma): 20 mg/kg/inj. | B 16 Maximum % T/C (B16 Melanoma): 150 % T/C

[O-][Cl+3]([O-])([O-])[O-].[Rh+].c1ccc(P(CCP(c2ccccc2)c2ccccc2)c2ccccc2)cc1.c1ccc(P(CCP(c2ccccc2)c2ccccc2)c2ccccc2)cc1 [TNO 316, Bis[1,2-bis(diphenylphosphino)ethane]rhodium(I) perchlorate]
P 388 Dose producing the maximum % T/C (P388 murine leukemia): 12.5 mg/kg | P 388 Maximum % T/C (P388 murine leukemia): 150 % T/C | L1210/DDP Dose producing the maximum % T/C [3]: 120 mg/kg | L1210/DDP Max. % T/C [3]: 157 % T/C | B 16 Dose producing the maximum % T/C (B16 Melanoma): 16 mg/kg/inj. | B 16 Maximum % T/C (B16 Melanoma): 131 % T/C | L1210 Dose producing the maximum % T/C (L1210 murine leukemia): 160 mg/kg | L1210 Max. % T/C (L1210 murine leukemia): 133 % T/C

[Br-].[Br-].[Co+2].c1ccc(P(CCP(c2ccccc2)c2ccccc2)c2ccccc2)cc1.c1ccc(P(CCP(c2ccccc2)c2ccccc2)c2ccccc2)cc1 [TNO 346, Bis[1,2-bis(diphenylphosphino)ethane]bromo cobalt(II) bromide]
P 388 Dose producing the maximum % T/C (P388 murine leukemia): 100 mg/kg | P 388 Maximum % T/C (P388 murine leukemia): 167 % T/C | L1210 Dose producing the maximum % T/C (L1210 murine leukemia): 200 mg/kg | L1210 Max. % T/C (L1210 murine leukemia): 100 % T/C

Bis[1,2-bis(diphenylphosphino)ethane] dichloro rhodium(III) perchlorate [TNO 355]
P 388 Dose producing the maximum % T/C (P388 murine leukemia): 100 mg/kg | P 388 Maximum % T/C (P388 murine leukemia): 167 % T/C | L1210/DDP Dose producing the maximum % T/C [3]: 49 mg/kg | L1210/DDP Max. % T/C [3]: 119 % T/C | B 16 Dose producing the maximum % T/C (B16 Melanoma): 30 mg/kg/inj. | B 16 Maximum % T/C (B16 Melanoma): 171 % T/C | L1210 Dose producing the maximum % T/C (L1210 murine leukemia): 80 mg/kg | L1210 Max. % T/C (L1210 murine leukemia): 114 % T/C

C(=CP(c1ccccc1)c1ccccc1)P(c1ccccc1)c1ccccc1.C(=CP(c1ccccc1)c1ccccc1)P(c1ccccc1)c1ccccc1.[Cl-].[Cl-].[Fe+2] [TNO 396, Bis[cis-1,2-bis(diphenylphosphino)ethylene]dichloro iron(II)]
P 388 Dose producing the maximum % T/C (P388 murine leukemia): 200 mg/kg | P 388 Maximum % T/C (P388 murine leukemia): 150 % T/C | IC 50 (concentration which inhibits cell growth by 50%), HCT 116 [1]: 383 µg/mL | IC 50 (concentration which inhibits cell growth by 50%), B 16 [2]: 452 µg/mL

[I-].[I-].[Pd+2].c1ccc(P(CCP(c2ccccc2)c2ccccc2)c2ccccc2)cc1.c1ccc(P(CCP(c2ccccc2)c2ccccc2)c2ccccc2)cc1 [TNO 342, Bis[1,2-(diphenylphosphino)ethane]diiodo palladium(II)]
P 388 Dose producing the maximum % T/C (P388 murine leukemia): 5 mg/kg | P 388 Maximum % T/C (P388 murine leukemia): 139 % T/C

[O-][Cl+3]([O-])([O-])[O-].[O-][Cl+3]([O-])([O-])[O-].[Pd+2].c1ccc(P(CCP(c2ccccc2)c2ccccc2)c2ccccc2)cc1.c1ccc(P(CCP(c2ccccc2)c2ccccc2)c2ccccc2)cc1 [TNO 343, Bis[1,2-bis(diphenylphosphino)ethane]palladium(II) diperchlorate]
P 388 Dose producing the maximum % T/C (P388 murine leukemia): 200 mg/kg | P 388 Maximum % T/C (P388 murine leukemia): 178 % T/C | B 16 Dose producing the maximum % T/C (B16 Melanoma): 60 mg/kg/inj. | B 16 Maximum % T/C (B16 Melanoma): 204 % T/C

[Ir+3].[O-][Cl+3]([O-])([O-])[O-].[O-][O-].c1ccc(P(CCP(c2ccccc2)c2ccccc2)c2ccccc2)cc1.c1ccc(P(CCP(c2ccccc2)c2ccccc2)c2ccccc2)cc1 [TNO 413, Bis[1,2-bis(diphenylphosphino)ethane]peroxo iridium(III) perchlorate]
P 388 Dose producing the maximum % T/C (P388 murine leukemia): 200 mg/kg | P 388 Maximum % T/C (P388 murine leukemia): 170 % T/C

[Cl-].[Cl-].[O-][Cl+3]([O-])([O-])[O-].[Rh+3].c1ccc(P(CC[As](c2ccccc2)c2ccccc2)c2ccccc2)cc1.c1ccc(P(CC[As](c2ccccc2)c2ccccc2)c2ccccc2)cc1 [TNO 395, Bis[1-diphenylphosphino-2-diphenylarsinoethane]dichloro rhodium(III) perchlorate]
P 388 Dose producing the maximum % T/C (P388 murine leukemia): 200 mg/kg | P 388 Maximum % T/C (P388 murine leukemia): 136 % T/C
